Measured values: ChEMBL document CHEMBL5608246, “Membrane-Targeting Amphiphilic Honokiol Derivatives Containing an Oxazole Moiety as Potential Antibacterials against Methicillin-Resistant Staphylococcus aureus” (J Med Chem, 2024)

Legend:
[1] = Selectivity index, ratio of HC50 for sheep RBC to MIC for Staphylococcus aureus ATCC 29213; type: toxicity; details: sheep red blood cells, read-out: Selectivity Index
Staphylococcus aureus [2] = experiment: Antibacterial activity against methicillin resistant Staphylococcus aureus M23 incubated for 16 to 18 hrs by broth dilution method; type: functional; details: time 16-18 hrs
Escherichia coli = experiment: Antibacterial activity against Escherichia coli ATCC 25922 incubated for 16 to 18 hrs by broth dilution method; type: functional; details: time 16-18 hrs
Staphylococcus aureus [3] = experiment: Antibacterial activity against methicillin resistant Staphylococcus aureus M12 incubated for 16 to 18 hrs by broth dilution method; type: functional; details: time 16-18 hrs
Staphylococcus aureus [4] = experiment: Antibacterial activity against methicillin resistant Staphylococcus aureus M17 incubated for 16 to 18 hrs by broth dilution method; type: functional; details: time 16-18 hrs
Staphylococcus aureus [5] = experiment: Antibacterial activity against methicillin resistant Staphylococcus aureus M22 incubated for 16 to 18 hrs by broth dilution method; type: functional; details: time 16-18 hrs
Staphylococcus aureus [6] = experiment: Antibacterial activity against methicillin resistant Staphylococcus aureus M21 incubated for 16 to 18 hrs by broth dilution method; type: functional; details: time 16-18 hrs
Staphylococcus aureus [7] = experiment: Antibacterial activity against methicillin resistant Staphylococcus aureus M16 incubated for 16 to 18 hrs by broth dilution method; type: functional; details: time 16-18 hrs
Staphylococcus aureus [8] = experiment: Antibacterial activity against Staphylococcus aureus ATCC 29213 incubated for 16 to 18 hrs by broth dilution method; type: functional; details: time 16-18 hrs
Staphylococcus aureus [9] = experiment: Antibacterial activity against methicillin resistant Staphylococcus aureus M20 incubated for 16 to 18 hrs by broth dilution method; type: functional; details: time 16-18 hrs
[10] = Hemolytic activity in sheep RBC incubated for 1 hr; type: toxicity, cell-based, Ovis aries, Erythrocyte; details: sheep red blood cells (erythrocytes)
Staphylococcus aureus [11] = experiment: Antibacterial activity against methicillin resistant Staphylococcus aureus M13 incubated for 16 to 18 hrs by broth dilution method; type: functional; details: time 16-18 hrs
Staphylococcus aureus [12] = experiment: Antibacterial activity against methicillin resistant Staphylococcus aureus M11 incubated for 16 to 18 hrs by broth dilution method; type: functional; details: time 16-18 hrs
Staphylococcus aureus [13] = experiment: Antibacterial activity against methicillin resistant Staphylococcus aureus N315 incubated for 16 to 18 hrs by broth dilution method; type: functional; details: time 16-18 hrs
Staphylococcus aureus [14] = experiment: Antibacterial activity against methicillin resistant Staphylococcus aureus M14 incubated for 16 to 18 hrs by broth dilution method; type: functional; details: time 16-18 hrs

| SMILES | selectivity ratio [1] | MIC (Staphylococcus aureus [2]) [mg/L] | MIC (Escherichia coli) [mg/L] | MIC (Staphylococcus aureus [3]) [mg/L] | MIC (Staphylococcus aureus [4]) [mg/L] | MIC (Staphylococcus aureus [5]) [mg/L] | MIC (Staphylococcus aureus [6]) [mg/L] | MIC (Staphylococcus aureus [7]) [mg/L] | MIC (Staphylococcus aureus [8]) [mg/L] | MIC (Staphylococcus aureus [9]) [mg/L] | HC50 at 1 h [10] [µg/mL] | MIC (Staphylococcus aureus [11]) [mg/L] | MIC (Staphylococcus aureus [12]) [mg/L] | MIC (Staphylococcus aureus [13]) [mg/L] | MIC (Staphylococcus aureus [14]) [mg/L] |
| --- | --- | --- | --- | --- | --- | --- | --- | --- | --- | --- | --- | --- | --- | --- | --- |
| C=CCc1cc(-c2ccc(OCCC[N+](C)(C)CC(=O)NCCCC)c(CC=C)c2)c2oc(-c3ccc(F)cc3Cl)nc2c1.[Br-] | 27.3 | 4 | > 128 | 4 | 4 | 4 | 4 | 4 | 8 | 4 | 219 | 4 | 4 | 8 | 4 |
| C=CCc1cc(-c2ccc(OCCC[N+](C)(C)CC(=O)NCCCC)c(CC=C)c2)c2oc(-c3ccc(F)c(F)c3)nc2c1.[Br-] | 27.7 | 4 | > 128 | 8 | 4 | 16 | 4 | 4 | 8 | 4 | 222 | 4 | 8 | 32 | 4 |
| C=CCc1cc(-c2ccc(OCCC[N+](C)(C)CC(=O)NCCCC)c(CC=C)c2)c2oc(-c3cccc(Cl)c3Cl)nc2c1.[Br-] | 1.2 | 8 | 128 | 8 | 4 | 8 | 8 | 8 | 32 | 4 | 39.5 | 16 | 16 | 8 | 4 |
| C=CCc1cc(-c2ccc(OCCC[N+](C)(C)CC(=O)NCCCC)c(CC=C)c2)c2oc(-c3ccc(OC)cc3)nc2c1.[Br-] | > 40 | 2 | > 128 | 4 | 4 | 2 | 2 | 2 | 8 | 2 | 320 | 4 | 2 | 4 | 2 |
| C=CCc1cc(-c2ccc(OCCC[N+](C)(C)CC(=O)NCCCC)c(CC=C)c2)c2oc(-c3cc(Cl)cc(Cl)c3)nc2c1.[Br-] | 0.6 | 128 | > 128 | 128 | 32 | 128 | 32 | 64 | 128 | 128 | 81.3 | 32 | > 128 | 128 | 64 |
| C=CCc1cc(-c2ccc(OCCC[N+](C)(C)CC(=O)NCCCC)c(CC=C)c2)c2oc(-c3ccccc3Cl)nc2c1.[Br-] | > 40 | 32 | 128 | 64 | 128 | 32 | 128 | 32 | 16 | 64 | > 640 | 32 | 128 | 64 | 64 |
| C=CCc1cc(-c2ccc(OCCC[N+](C)(C)CC(=O)NCCCC)c(CC=C)c2)c2oc(-c3ccc(Cl)cc3Cl)nc2c1.[Br-] | 2.7 | 8 | > 128 | 16 | 8 | 16 | 8 | 8 | 32 | 8 | 85.9 | 16 | 64 | 32 | 8 |
| C=CCc1cc(-c2ccc(OCCC[N+](C)(C)CC(=O)NCCCC)c(CC=C)c2)c2oc(-c3ccccc3F)nc2c1.[Br-] | 27.4 | 4 | 128 | 4 | 4 | 4 | 8 | 4 | 4 | 4 | 110 | 4 | 4 | 8 | 4 |
| C=CCc1cc(-c2ccc(OCCC[N+](C)(C)CC(=O)NCCCC)c(CC=C)c2)c2oc(-c3ccccc3Br)nc2c1.[Br-] | > 80 | 4 | 128 | 4 | 4 | 4 | 4 | 2 | 4 | 4 | > 320 | 2 | 4 | 8 | 4 |
| C=CCc1cc(-c2ccc(OCCC[N+](C)(C)CC(=O)NCCCC)c(CC=C)c2)c2oc(-c3cccc(OC)c3)nc2c1.[Br-] | 9.6 | 8 | > 128 | 16 | 8 | 16 | 8 | 8 | 32 | 8 | 307 | 16 | 8 | 8 | 8 |
| C=CCc1cc(-c2ccc(OCCC[N+](C)(C)CC(=O)NCCCC)c(CC=C)c2)c2oc(-c3ccc(Br)cc3)nc2c1.[Br-] | > 5 | 8 | 128 | 16 | 16 | 16 | 8 | 8 | 64 | 8 | > 320 | 8 | 8 | 64 | 8 |
| C=CCc1cc(-c2ccc(OCCC[N+](C)(C)CC(=O)NCCCC)c(CC=C)c2)c2oc(-c3ccc(Br)cc3Br)nc2c1.[Br-] | 1.3 | 32 | > 128 | 16 | 64 | 32 | 16 | 16 | 128 | 16 | 170 | 16 | 32 | 64 | 32 |
| C=CCc1cc(-c2ccc(OCCC[N+](C)(C)CC(=O)NCCCC)c(CC=C)c2)c2oc(-c3ccc(Cl)c(Br)c3)nc2c1.[Br-] | > 2.5 | 128 | > 128 | 128 | 128 | 128 | 128 | 64 | 128 | 128 | > 320 | 32 | > 128 | 128 | 64 |
